Reference: patent US11453640B2, “Small molecules for disrupting the super elongation complex and inhibiting transcription elongation for cancer therapy” (NORTHWESTERN UNIVERSITY, priority 2018, dated 2022)

Key:
[1] = test system: SEC subunits AFF1, AFF4, ELL2, CCNT1 and CDK9 mRNA; assay: RNA-seq of SEC subunit mRNA expression in HEK293T cells; format: cell-based, human; details: 20 μM, 12 hr
Description: FIG. 8, related to FIG. 1. Peptidomimetic identification of disruptors of the AFF4-CCNT1 interaction within the Super Elongation Complex. (A) Schematic of AlphaLISA assay of the AFF4-CCNT1 interaction. Anti-GST AlphaLISA acceptor beads and AlphaScreen streptavidin donor beads (Perkin Elmer) were used to detect the interaction of GST-CCNT1 (AA1-300) and biotin-AFF4 (AA32-67). (B-C) Optimization of the AlphaLISA assay with various biotin-AFF4 peptide and GST-CCNT1 concentrations. No CCNT1 (B) and mutant AFF4 (C) were used as negative controls. Data are represented as Mean+/−SD. (D) Scheme for chemical synthesis of SEC inhibitors KL-1 and KL-2. Reagents and conditions: a. LDA, THF, −78° C., 15 min., then diethyl oxalate, −78° C. to room temperature. b. […] 293T cells were treated with 20 μM of KL-1 or KL-2 for 6 hr, and the protein levels of BRD2, BRD4, Pol II (RPB1), SPT5, MED26, MYC, HSP90 (load control) and Tubulin (load control) were measured by western blotting. […] HCT-116 cells were treated with 20 μM of KL-1 or KL-2 for 6 hr, and the protein levels of AFF1, AFF4, CCNT1, CDK9 and Tubulin (load control) were determined by western blotting. […] The log2CPM (counts per million) of the SEC subunits were calculated with HTseq. […]
RNA-seq Analysis. […] Exonic reads were assigned to specific genes from Ensembl release 75 using Bioconductor package GenomicRanges countOverlaps. […]

[2] = test system: heat shock inducible genes in HCT-116 cells; assay: Heat shock induction in HCT-116 cells (Pol II ChIP-seq); format: cell-based, human; details: 5 hr pretreatment, 42° C. 1 hr
Protocol: FIG. 5. SEC inhibitors block transcription elongation in SEC-dependent rapid response models. (A-B) Genome browser tracks of Pol II ChIP-seq at the FOS, HSPD1 and HSPE1 genes after 1 hr heat shock of HCT-116 cells treated with vehicle (DMSO) or the indicated SEC inhibitors. HCT-116 cells were pretreated with inhibitors for 5 hr at 37° C. before exchanging medium with conditioned 42° C. medium. Dark and light colors indicate the 37 and 42° C. conditions, respectively. (C) Genome-wide identification of heat shock-induced genes with fold change of reads per million in gene bodies and pausing index. Red dots are the 136 heat shock-induced genes according to Pol II signals (fold change of reads per million in gene bodies >1.5 and pausing index decreased >1.5-fold in the DMSO-treated condition). […] Box plot analysis depicts the log2 fold changes of reads per million in gene bodies (E) (y axis) after heat shock with pretreatment of vehicle or SEC inhibitors. […]
Chromatin Immunoprecipitation Sequencing. […] ChIP-seq reads were aligned to the Drosophila genome (UCSC dm3) or human genome (UCSC hgl9). Alignments were processed with Bowtie version 1.1.2, allowing only uniquely mapping reads with up to two mismatches within the 50 bp read. The resulting reads were extended to 150 bp toward the interior of the sequenced fragment and normalized to total reads aligned (reads per million, r.p.m.). […]

With `COc1cccc(C(=O)CC(=O)C(=O)Nc2cc(Cl)ccc2C)c1` [KL-1, N-(5-chloro-2-methylphenyl)-4-oxo-4-(3-methoxyphenyl)-2-oxobutanamide] the “mRNA levels of SEC components” value [1] was “do not result in decreased mRNA levels of SEC components” and the “induction of heat shock inducible genes” value [2] was “block induction of known heat shock inducible genes”.
